We go through twelve compounds from ChEMBL document CHEMBL3044999, “Chemical basis for the antifeedant activity of natural hydroxamic acids and related compounds” (2004).

The subject of the test is Rhopalosiphum padi. The test is described as follows: Antifeedant activity against third-instar larvae of Rhopalosiphum padi assessed as repellency index after 24 hr by feeding choice assay. The test is classed as functional. Further details: concentration or dose not given beside the values.
Take `COc1ccc2c(c1)OC(OC)C(=O)N2O` (configuration not stated): the Activity was found to be 33.3%.
The figure for `COC(=O)c1ccc2c(c1)OCC(=O)N2O` [7-MeOCO-D-DIBOA] is 32%.
The figure for `COc1ccc2c(c1)OCC(=O)N2` is 18%; for `O=C(O)c1ccc2c(c1)OCC(=O)N2O` it is 2.5%; for `O=C1C(O)Oc2ccccc2N1O` (configuration not stated) it is 92.3%.
With `O=C1COc2ccccc2N1`, the Activity came out at 17%.
With `COc1ccc2c(c1)OC(O)C(=O)N2` (configuration not stated) the figure was 35%; with `COC1Oc2ccccc2N(O)C1=O` (configuration not stated), 0%; with `O=C1COc2ccccc2N1O`, 26%.
Regarding `O=C1Nc2ccccc2OC1O` (configuration not stated), the Activity is recorded as 38%.
The figure for `COc1ccc2c(c1)OC(O)C(=O)N2O` (configuration not stated) is 74%; for `COc1ccc2c(c1)OCC(=O)N2O` it is 52%.
